The test system of test [1] is human polymorphonuclear leukocytes (PMN). Description: Human chymase-induced migration of polymorphonuclear leukocytes, 48-well chemotaxis chamber. It counts as cell-based. The following applies: inhibitor in lower well, 1% dimethyl sulfoxide, 37° C. 1 hour. As for the experimental part:
In Example 6, it was shown that a remarkable infiltration of leukocytes is observed in late-phase reaction of human chymase-induced dermatitis. The effect of human chymase on the migration of polymorphonuclear leukocytes (PMN) in vitro was investigated for the purpose of investigating the mechanism of chymase-induced leukocyte infiltration. PMN was isolated by adding a ⅕th volume of 6% dextran solution to heparinized whole blood from normal healthy subject and allowing it to stand at 37° C. for 1 hour, then layering the supernatent on Ficoll-Paque (Amersham Pharmacia Biotech) and centrifuging it. Further, the migration of PMN was measured by using a 48-well chemotaxis chamber (NeuroProbe Co.) by the textbook method (Seibutsu Yakkagaku Jikken Koza (Biopharmacology Experiment Lectures) 12, 315, Hirokawa Shoten). That is, a medium containing human chymase (200 to 800 nM) or fMLP (N-formyl-L-methionyl-L-leucyl-L-phenylalanine, Sigma-Aldrich Co.) (10 nM) was placed in the lower well of the chamber. The upper well and the lower well were separated by a polycarbonate filter (pore size 5 μm) (NeuroProbe Co.) PMN (1×10^6/ml) was added to the upper well and cultured at 37° C. for 1 hour, then the filter was fixed, stained and the number of cells in the membrane were counted under a microscope (400×) (Seibutsu Yakkagaku Jikken Koza (Biopharmacology Experiment Lectures) 12, 315). For the cell staining, a hemacolor solution (Merck) was used. In this test, when investigating the effect of the chymase inhibitor, a chymase inhibitor (Compound 18 or Compound 34) was dissolved in dimethyl sulfoxide and added to the lower well of the chamber just before the addition of the human chymase. The concentration of the compound was adjusted so that the final concentration of the dimethyl sulfoxide became 1%.

The test system of test [2] is dermatitis induced by repeated application of hapten. The test is described as follows: Mouse dermatitis model induced by repeated application of hapten (DNFB), ear thickness. It counts as in vivo, C3H/HeN mice. Particulars: for suppression of increase in ear thickness (skin reaction after hapten application): five days a week. How it is done: Dermatitis was induced in accordance with an already reported method (J. Pharmacol. Exp. Ther. 283, 321, 1997) using dinitrofluorobenzene (DNFB) as hapten. That is, the right ears of eight-week old female C3H/HeN mice (Nippon Clare) (n=7) were painted with 0.15% DNFB (25 μl) dissolved in an acetone/olive oil (3:1) every seven days six times. When applying the hapten each time, the ear thickness was measured by a micrometer (Digimatic Indicator, Mitsutoyo Co.) immediately before the application and 1 hour, 6 hours, 24 hours, and 48 hours after the application so as to find the amount of increase from the ear thickness before the first application of hapten. Further, a group similarly treated with an acetone/olive oil solution (3:1) not containing DNFB was used as a control. Further, in a test separate from the above, the ears were cut off immediately before the third application of hapten, the chymase-like activity of the skin was measured in accordance with an already reported method (n=3), and this was compared with the activity of mice treated with an acetone/olive oil solution (3:1) not containing DNFB (n=2).
The effect of a test substance on dermatitis was investigated by inducing dermatitis in accordance with the method described in Example 9 (n=7) and measuring the ear thickness in the same way as in Example 9. As the test substance, three chymase inhibitors (Compound 18, Compound 34, and Compound 35) were used, while as the control, the steroid prednisolone (Nakarai Tesc Inc.) was used. Further, the test substance was suspended in saline containing 0.5% hydroxypropyl cellulose in the same way as in Example 3 (HPC/saline) and intraperitoneally administered in dosages of 10 mg/kg or 50 mg/kg once a day for five consecutive days a week until the end of the test; the first administration was performed immediately before the start of the hapten application. Further, a group similarly treated with DNFB and administered HPC/saline instead of the test substance was used as a control group.

Test [3] relates to mast cells of skin. Description: Increase in number of mast cells of skin in hapten-induced mouse dermatitis model. The following applies: 48 hours after sixth application of hapten. Type of test: in vivo, C3H/HeN mice. As for the experimental part:
The effect of a chymase inhibitor on the increase in mast cells of skin in the test of Example 10 was studied. In the same way as Example 11, the ears of the mice were fixed with formalin and paraffin sections prepared by an ordinary method 48 hours after the sixth application of hapten. The mast cells of the sections were stained by the Toluidine Blue method, then the number of mast cells were counted under a microscope (×400) for 10 fields per section. The density of mast cells of the skin was measured in accordance with the method of Kitagaki et al. (J. Invest. Dermatol. 105, 749, 1995). As the chymase inhibitor, use was made of Compound 18 and Compound 34. These were administered by the method described in Example 10. Further, a group treated with an acetone/olive oil solution (3:1) not containing DNFB was used as the non-induced control group, while a group treated with DNFB and administered HPC/saline instead of the test substance was used as the control for the group administered the chymase inhibitor.

Test [4] concerns eosinophils of the skin. Description: Increase in eosinophils of skin in hapten-induced mouse dermatitis model. It counts as in vivo, C3H/HeN mice. The following applies: 48 hours after sixth application of hapten. As for the experimental part:
The effect of a chymase inhibitor on the infiltration of eosinophils of the skin in the test of Example 10 was studied. That is, 48 hours after the sixth application of hapten, the ears of the mice were fixed with formalin and paraffin sections prepared in accordance with an ordinary method. The sections were stained with Fast Green (Fluka), known to specifically stain eosinophils (Current Protocol in Immunology, Wiley Interscience). That is, the deparaffined sections were fixed with 100% methanol for 1 minute, then stained for 30 minutes by 0.2% Fast Green dissolved in 70% ethanol. The eosinophils were measured by randomly selecting 10 fields (×400) under a microscope and counting the number of cells per area using an ocular grid. As the chymase inhibitor, the Compound 18 and Compound 34 were used and =administered by the method described in Example 10. Further, a group treated with an acetone/olive oil solution (3:1) not containing DNFB was used as the non-induced control group, while a group treated with DNFB and administered HPC/saline instead of the test substance was used as the control for the group administered the chymase inhibitor.

Test [5] relates to Ascaris-induced mouse biphasic dermatitis. The test is described as follows: Ascaris-induced mouse biphasic dermatitis model, ear edema. Type of test: in vivo, BALB/c mice. As for the experimental part:
Ascaris-induced biphasic dermatitis was induced according to the method described previously (Folia Pharmacol. Jap. 112, 221, 1998). That is, 8-week old BALB/c mice (Charles River Japan) were sensitized by intraperitoneal injection of 0.5 ml of a 1:1 mixture of ascaris extract (800 μg/ml, Cosmo Bio Co., Ltd.) and an alum saline suspension (16 mg/ml in saline). Two weeks after the sensitization, 10 μl of ascaris extract (1 mg/ml) was injected intradermally to the right ear of mice. The edema induced at the ear were evaluated immediately before intradermal injection of the ascaris extract (n=3) and 1 hour after (n=4), 2 hours after (n=4), 4 hours after (n=4), 6 hours after (n=4), 16 hours after (n=4), and 24 hours after injection (n=4), by weighing ear biopsy prepared with a punch (a diameter of 6 mm, Fukui Kiko Shokai) and measuring their weights. The edema (mg) was expressed as the difference in the weight of the ear punch biopsy between the right and the left ears of the same mouse. Dermatitis was induced in accordance with the method described in Example 2 and the ear edema was measured in the same way as in Example 2, 1 hour (n=6) and 16 hours (n=8) after the intradermal administration of ascaris extract to the ears to investigate the effects of the test substance on dermatitis. As the chymase inhibitor, Compound 34 was used. As the control drug, diphenhydrazine (antihistamine, Sigma) and prednisolone (steroid, Nakarai Tesc Co.) were used. Each drug under study was suspended in saline containing 0.5% hydroxypropyl cellulose and administered intraperiotoneally 60 minutes before intradermal administration of ascaris extract. A group of mice sensitized with ascaris extract and challenged by intradermal injection of saline was used as a control (n=3).

The test system of test [6] is natural onset dermatitis. Description: Natural onset dermatitis (NC/Nga) mice. Type of test: in vivo. Particulars: 150 mg/kg/day in drinking water, 35 days. The source says: NC/Nga mice were bred and raised in accordance with the methods described in previous reports (Progress in Medicine 19, 1201, 1999). Specifically, 5-week old NC/Nga mice obtained from Charles River Japan and raised under a specific pathogen free (SPF) environment were mixed with NC/Nga mice bred by the Faculty of Applied Biological Science of Hiroshima University starting from 6 weeks of age, kept until 15 weeks of age in a normal non-SPF environment, then used for the tests. The tests were conducted under non-SPF, conventional environment. The test substance (Compound 18) was mixed with the drinking water and administered for 35 consecutive days at 150 mg/kg/day (n=7), then an evaluation was conducted in accordance with the method described in previous reports (Progress in Medicine 19, 1201, 1999). That is, first, 35 days after the start of administration, the five items of (1) scratching behavior, (2) edema, (3) erythema and hemorrhaging, (4) depilation and ulceration, and (5) dryness were scored as 0 to 2 and the total found to judge the outer appearance of the skin. Next, the ears and skin of the back were fixed with formalin, embedded in paraffin, and histologically analyzed by staining the ear specimens by the hematoxylin and Eosin method, Toluidine Blue method, or Congo Red method (Stain Technol. 56, 323, 1981) and by staining the back skin specimens by the Toluidine Blue method or Congo Red method. Sections of the ear stained with Hematoxylin and Eosin were evaluated by judging the change in tissue in four scales of 0 to 3 for three items of (1) thickness of epidermis, (2) thickness of dermis, and (3) cellular infiltration and expressing as the total score. Further, the specimens stained with Toluidine Blue and stained with Congo Red were used for counting the mast cells and eosinophils. Specifically, the eosinophils of the back skin were counted in a ×400 field of a microscope, while the other cells were counted in a total of five ×200 fields and the totals expressed.

The mark [7] stands for this setting: 10 mg/kg intraperitoneal once a day.
Setting [8] is: 50 mg/kg intraperitoneal once a day, p<0.05 Dunnett's test.
Setting [9] is: 50 mg/kg intraperitoneal, 60 minutes before ascaris extract, p<0.01.

Structures are written as SMILES. Counter-ions that a name gives are not always drawn.

Turning to `CS(=O)(=O)O.Nc1cccc(S(=O)(=O)n2c(=O)[nH]c3cc(Cl)ccc3c2=O)c1` [Compound 34, 3-(3-aminobenzenesulfonyl)-7-chloro-2,4-(1H,3H)quinazolinedion Methanesulfonic Acid Salt], the “suppression of human chymase-promoted migration of human PMN” value in test [1] is “significantly suppressed”. Further, the “suppression of increase in ear thickness (skin reaction after hapten application)” value (from here on “suppression of increase in ear thickness”) in test [2] (setting [7]) was “significant suppressive effect”; in test [2] (setting [8]) it was “significantly suppressed”. The “rate of suppression of increase in density of mast cells” value in test [3] (10 mg/kg intraperitoneal) was “about 37%”; in test [3] (50 mg/kg intraperitoneal), “about 51%”. The “effect on increase in eosinophils” value in test [4] (10 and 50 mg/kg intraperitoneal) was “no statistically significant difference”. Also, in test [5] (setting [9]), the “rate of suppression, early-phase reaction (ear edema after 1 hour)” value is “about 41%”. Also, the “rate of suppression, late-phase reaction (ear edema after 16 hours)” value in test [5] (setting [9]) is “about 45%”.
In the case of `Cl.O=c1[nH]c2cc(Cl)ccc2c(=O)n1S(=O)(=O)c1ccc(-c2cc[nH]n2)cc1` [Compound 35, 7-chloro-3-[4-(pyrazol-3-yl)benzenesulfonyl]-2,4(1H,3H)-quinazolinedione Hydrochloride], the “suppression of increase in ear thickness” value in test [2] (setting [8]) is given as “significantly suppressed”.
For `Nc1cc(S(=O)(=O)n2c(=O)[nH]c3cc(Cl)ccc3c2=O)ccc1C(=O)O` [Compound 18, 4-[(7-chloro-2.4 (1H,3H)-quinazolinedion-3-yl)sulfonyl]anthranilic Acid Monosodium Salt], the “suppression of human chymase-promoted migration of human PMN” value in test [1] is listed as “significantly suppressed”. The “number of mast cells of ear skin and back skin” value in test [6] was “significant suppressive effect”. In addition, in test [6], the “numbers of eosinophils of ear skin and back skin” value was “significantly suppressed”. For the same compound, in test [6] (p<0.05 Mann-Whitney), the “histological score of the ears” value is “decreased significantly”. In addition, the “dermatitis score (clinical skin score)” value in test [6] (vs control group, p<0.05 Mann-Whitney) is “decreased significantly”. The “suppression of increase in ear thickness” value is recorded as “significant effect” in test [2] (setting [7]) and “significantly suppressed” in test [2] (setting [8]). For the same compound, the “rate of suppression of increase in density of mast cells” value in test [3] (10 mg/kg intraperitoneal) is “about 57%”; in test [3] (50 mg/kg intraperitoneal), “about 64%”. For the same compound, the entries for the “rate of suppression of increase in eosinophils” value in test [4] (10 mg/kg intraperitoneal) and in test [4] (50 mg/kg intraperitoneal) were 37.1% and 60.5%, respectively.
Consider `C[C@]12C=CC(=O)C=C1CC[C@@H]1[C@@H]2[C@@H](O)C[C@@]2(C)[C@H]1CC[C@]2(O)C(=O)CO` [Prednisolone, prednisolone], for which the “suppression of dermatitis (ear thickness)” value in test [2] (control drug, 10 mg/kg or 50 mg/kg intraperitoneal) was “suppressed dermatitis in this model in a dose-dependent manner”. Moreover, the “rate of suppression, late-phase reaction” value in test [5] (30 mg/kg intraperitoneal, 16 hours after challenge) was found to be 67%. For the same compound, the “effect against the early-phase reaction” value in test [5] (control drug, intraperitoneal, 1 hour after challenge) is reported as “substantially ineffective”.
For `CN(C)CCOC(c1ccccc1)c1ccccc1` [diphenhydrazine], the “rate of suppression, early-phase reaction” value in test [5] (control drug, intraperitoneal, dose not given, 1 hour after challenge) was 79%. Further, the “effect against the late-phase reaction” value in test [5] (control drug, intraperitoneal, dose not given, 16 hours after challenge) is “almost no effect”.

The record behind these values is patent US7618977B2, “Method of treating dermatitis comprising administering a chymase inhibitor” (Asubio Pharma Co., Ltd., priority 2000, dated 2009).
